# Earlier results, collected in patent US20240382574A1, “METHODS AND COMPOSITIONS FOR ORALLY DOSING ANIMALS” (Animal Science Products, Inc., priority 2023, published 2024).
# Tested on: piglets
# Conditions: previous research
row,Molecule,attraction of piglets
1,3-methylindole (skatole),piglets are attracted to these molecules
2,"CCCCCCCCCCCCCC(=O)O [myristic acid, tetradecanoic acid (myristic acid)]",piglets are attracted to these molecules
